Data from patent US10550094B2, “Compounds having antioxidant activity against free radicals and anti-inflammatory activity, and corresponding pharmaceutical or cosmetic compositions for skin care” (GIULIANI S.P.A., priority 2015, dated 2020).

Assay: HORAC Hydroxyl radical antioxidant capacity assay
Source text: HORAC Assay: Hydroxyl Antioxidant Capacity In Vitro
The commercial kit “Oxiselect Hydroxyl Radical Antioxidant Capacity (HORAC) activity assay” (Cell Biolabs).
The HORAC assay esxpresses the compound antiradical capacity towards the hydroxyl radical OH′ and is based on the oxidation of a fluorescent probe by hydroxyl radicals through a hydrogen transfer process (HAT). Hydroxyl radicals are produced by a radical initiator hydroxyl and by Fenton's reagent, which quenches the fluorescent probe over time. The antioxidants present in the sample block the oxidation by the hydroxyl radical of the fluorescent probe until the antioxidant activity in the sample runs out. The remaining hydroxyl radicals destroy the fluorescence of the fluorescent probe. The antioxidant capacity of the sample is related to the fluorescence decay curve, which usually is represented as the area under the curve (AUC). The AUC is used to quantify the total antioxidant activity of the hydroxyl radical in a sample and is compared to the curve of an antioxidant standard.
The compounds of the invention were tested at the following concentrations: 13.5 μM; 27 μM, 13.5 mM; 27 mM.
For comparison purposes, also samples of the compound monofurfurylidene-2.4-sorbitol defined below by the acronym ARGB11, were in this case tested under the same two concentrations, as a reference compound according to EP0345362 mentioned above as the background art of substances with free radical inhibition activity.

OC[C@@H](O)[C@H]1OC(c2ccco2)O[C@@H](CO)[C@H]1O (stereo partly shown) [ARGB11, monofurfurylidene-2.4-sorbitol, reference compound]
HORAC (Hydroxyl Radical Antioxidant Capacity) (13.5 μM): 31.04 μMole GAE/L | HORAC (Hydroxyl Radical Antioxidant Capacity) (27 μM): 40.110 μMole GAE/L | HORAC (Hydroxyl Radical Antioxidant Capacity) (13.5 mM): 308.497 μMole GAE/L | HORAC (Hydroxyl Radical Antioxidant Capacity) (27 mM): 408.795 μMole GAE/L
